Test results taken from publication PMC9298260, “An Immunomodulatory Peptide Dendrimer Inspired from Glatiramer Acetate” (Angewandte Chemie (International Ed. in English), 2021).

Tests used:
[1] = test system: IL-1Ra release from human primary monocytes; assay: IL-1Ra release from human primary monocytes, immunoassay (ELISA) of supernatants; format: cell-based; settings: primary human monocytes of healthy donors, 25 and 50 μg mL^−1, 48 h
Procedure: (§1) As an activity screen we focused on interleukin‐1 receptor antagonist (IL‐1Ra), a cytokine released by circulating antigen presenting cells (APC) in response to GA.[15, 35] […] To test our dendrimers, we quantified by immunoassay the release of IL‐1Ra from human primary monocytes of healthy donors, an easily accessible type of APC, stimulated or not by addition of lipopolysaccharide (LPS), which in our hands provided a reliable read‐out.[15] We tested at defined weight/volume (25 and 50 μg mL^−1 compound as typically reported for GA)[15, 35] to account for a possible activity increase with MW as often observed with dendrimers when using molarity. In the initial screen the levels of secreted IL‐1Ra remained below 1 ng mL^−1 for all the smaller test compounds as well as with the linear peptide analogs of GA.
(§2) Figure 2 Cytokine level of IL‐1Ra in supernatants of primary human monocytes of healthy donors treated with peptide dendrimers, evaluated by ELISA (bars, left vertical axis) and mRNA levels (▴, right vertical axis). […] For mRNA levels evaluation, 2×10^6 cells 3 mL^−1 in 6 well plates were incubated with 50 μg mL^−1 dendrimer or GA for 18 h. […]
(§3) Enzyme-linked immunosorbent assay (ELISA)
(§4) Monocytes (5×10^4 cells/200 μL well; 96-well plates) were preincubated for 1 h with or without compounds in RPMI-1640 medium supplemented with 10% heat-inactivated FBS, 50 μg/mL streptomycin, 50 U/mL penicillin, 2 mM L-glutamine, and 5 μg/mL polymyxin B sulfate and then cultured for 48 h in the presence or absence of LPS (100 ng/mL) (2). The production of IL-1Ra was measured in culture supernatants by commercially available enzyme immunoassay according to manufacture protocol.
(§5) Figure S2. Cytokine level of IL-1Ra in supernatants of monocytes for active dendrimers and analogues evaluated by ELISA assay on primary human monocytes of healthy donors. 5×10^4 cells/200 µL in 96 well plates, were incubated with dendrimers or GA as a control for 48 h in presence or absence of LPS (100 ng/mL), in a range of concentrations (50-25 µg/mL) (mean ± SD, n = 2 different experiments). The results are present as the difference between each sample and the non-treated sample to take into account the difference between base line for each donor.
(§6) Figure S3. Cytokine level of IL-1Ra in supernatants of monocytes for active dendrimers and […]
(§7) presence or absence of LPS (100 ng/mL), in a range of concentrations (100-12.5 µg/mL) (mean ± SD, n = 3 different experiments). […]

lymphocytes = assay: IL-1Ra in supernatants of lymphocytes (rest of leukocytes after Percoll), ELISA; format: cell-based, human; settings: rest of leukocytes after Percoll gradient, 50-25 µg/mL, 48 h, n = 2
Procedure: Similar donor dependent responses of cytokine release to GA have been reported for IL‐27.[38]
Figure S3. Cytokine level of IL-1Ra in supernatants of monocytes for active dendrimers and analogues evaluated by ELISA assay on primary human monocytes of healthy donors. 5×10^4 cells/200 µL in 96 well plates, were incubated with dendrimers or GA as a control for 48 h in presence or absence of LPS (100 ng/mL), in a range of concentrations (100-12.5 µg/mL) (mean ± SD, n = 3 different experiments).
Figure S4. Cytokine level of IL-1Ra in supernatants of monocytes enriched fraction (a) and the rest of leukocytes (b) for active dendrimers and analogues evaluated by ELISA assay.
Monocytes fraction was separated from whole PBMC by Percoll density gradient centrifugation. 5×10^4 cells/200 µL in 96 well plates were incubated with dendrimers or GA (50-25 µg/mL) as a control for 48 h (mean ± SD, n = 2 different experiments). […]

[2] = test system: IL-1Ra release from human primary monocytes; assay: IL-1Ra release from human primary monocytes, immunoassay (ELISA) of supernatants; format: cell-based; parameters: key: +: Ability to induce IL-1Ra on primary monocytes after 48 h of incubation; Ability to induce IL-1Ra on primary monocytes after 48 h of incubation; settings: Table S1 initial library; primary monocytes, 48 h
Procedure: as §1, §2, §3, §4, §5, §6, §7

(KA)8(KAK)4(KEKA)2KAKEAYCA-NH2 [compound 1, G3 peptide dendrimer]
IL-1Ra release activity (in words) [1]: comparable or higher than GA | induction of IL-1Ra in lymphocytes (lymphocytes): did not occur | Act. (ability to induce IL-1Ra) [2]: +
